Assay [1] addresses T1, Human PDGFRα, cytoplasmic domain (GST-PDGFRα) (Homo sapiens, UniProt P16234).
T1 construct: made in house
The assay can be described thus: Human PDGFRα biochemical inhibition assay (off-chip Mobility Shift Assay).

Assay [2] concerns the target T2, Human PDGFRβ, cytoplasmic domain (GST-PDGFRβ) (Homo sapiens, UniProt P09619).
T2 construct: made in house
Nature of the assay: Human PDGFRβ biochemical inhibition assay (off-chip Mobility Shift Assay). Summed up:
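GST-tagged cytoplasmic domain (aa 557-1106) from baculovirus was incubated 1 h at room temperature with compound, CSKtide, ATP at Km and Mg²⁺ in HEPES buffer, pH 7.5. Phosphorylated and unphosphorylated peptide were separated by off-chip mobility shift, and the product ratio P/(P+S) gave percent inhibition.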

Molecules are shown by their SMILES. A value given as a limit tells only on which side of the number the result lay.

T2 sequence (P09619 with tags, fused parts or gaps): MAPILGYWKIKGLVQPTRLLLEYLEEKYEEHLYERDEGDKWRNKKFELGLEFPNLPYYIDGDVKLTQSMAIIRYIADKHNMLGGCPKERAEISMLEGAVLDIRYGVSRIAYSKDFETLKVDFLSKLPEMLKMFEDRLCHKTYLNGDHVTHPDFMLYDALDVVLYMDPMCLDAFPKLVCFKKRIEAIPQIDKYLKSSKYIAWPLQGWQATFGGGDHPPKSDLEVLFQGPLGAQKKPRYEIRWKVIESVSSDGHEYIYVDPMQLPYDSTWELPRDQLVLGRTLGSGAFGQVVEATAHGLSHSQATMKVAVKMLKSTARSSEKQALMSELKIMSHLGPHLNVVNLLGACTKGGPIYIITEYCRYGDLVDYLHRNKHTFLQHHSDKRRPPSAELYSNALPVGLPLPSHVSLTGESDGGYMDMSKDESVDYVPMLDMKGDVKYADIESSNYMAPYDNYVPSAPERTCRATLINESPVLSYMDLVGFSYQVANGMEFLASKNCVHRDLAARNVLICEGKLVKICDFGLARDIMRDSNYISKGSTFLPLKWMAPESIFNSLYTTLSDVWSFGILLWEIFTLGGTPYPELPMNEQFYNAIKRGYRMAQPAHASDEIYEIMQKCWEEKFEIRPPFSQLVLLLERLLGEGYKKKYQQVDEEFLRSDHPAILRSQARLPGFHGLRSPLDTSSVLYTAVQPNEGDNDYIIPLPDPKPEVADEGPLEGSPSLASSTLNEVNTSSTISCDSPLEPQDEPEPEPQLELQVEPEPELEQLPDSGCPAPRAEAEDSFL
T1 sequence (P16234 550-1089 T674I): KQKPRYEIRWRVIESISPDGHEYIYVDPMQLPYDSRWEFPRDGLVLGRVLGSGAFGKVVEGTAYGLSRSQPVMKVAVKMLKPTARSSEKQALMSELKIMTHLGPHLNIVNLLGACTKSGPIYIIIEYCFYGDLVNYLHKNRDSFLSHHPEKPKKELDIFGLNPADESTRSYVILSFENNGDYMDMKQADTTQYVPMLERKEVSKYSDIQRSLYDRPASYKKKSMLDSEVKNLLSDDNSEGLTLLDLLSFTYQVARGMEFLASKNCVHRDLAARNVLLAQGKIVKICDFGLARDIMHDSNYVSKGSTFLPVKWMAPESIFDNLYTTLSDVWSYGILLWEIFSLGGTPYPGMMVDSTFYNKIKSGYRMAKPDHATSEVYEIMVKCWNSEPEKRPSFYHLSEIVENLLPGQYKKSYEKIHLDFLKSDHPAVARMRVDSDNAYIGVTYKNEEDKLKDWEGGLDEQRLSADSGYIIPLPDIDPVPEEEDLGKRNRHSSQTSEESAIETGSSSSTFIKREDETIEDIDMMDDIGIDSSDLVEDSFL

In the case of `C#Cc1cncc(C(=O)Nc2cccc([C@H](C)Nc3cnc4cnn(C)c4n3)c2)c1` [Compound 113, (S)-5-ethynyl-N-(3-(1-((1-methyl-1H-pyrazolo[3,4-b]pyrazin-6-yl)amino)ethyl)phenyl)nicotinamide], the half-inhibitory concentration (IC50) in assay [1] was below 300 nM; in assay [2], 300 to 1000 nM.

Consider `C[C@H](Nc1cnc2cnn(C)c2n1)c1cccc(NC(=O)c2cncc(C3COC3)c2)c1` [Compound 114, (S)-N-(3-(1-((1-methyl-1H-pyrazolo[3,4-b]pyrazin-6-yl)amino)ethyl)phenyl)-5-(oxetan-3-yl)nicotinamide], for which the concentration for half-maximal inhibition (IC50) in assay [1] and in assay [2] was below 300 nM in each case.

On to `C[C@H](Nc1cnc2cnn(C)c2n1)c1cccc(NC(=O)c2ccc(C(F)(F)F)nc2)c1` [Compound 115, (S)-N-(3-(1-((1-methyl-1H-pyrazolo[3,4-b]pyrazin-6-yl)amino)ethyl)phenyl)-6-(trifluoromethyl)nicotinamide], for which the IC50 in assay [1] and in assay [2] was below 300 nM throughout.

For `C[C@H](Nc1cnc2cnn(C)c2n1)c1cccc(NC(=O)c2ccc(C3CC3)nc2)c1` [Compound 116, (S)-6-cyclopropyl-N-(3-(1-((1-methyl-1H-pyrazolo[3,4-b]pyrazin-6-yl)amino)ethyl)phenyl)nicotinamide], the IC50 in assay [1] and in assay [2] was below 300 nM in each case.

For `C[C@H](Nc1cnc2cnn(C)c2n1)c1cccc(NC(=O)c2ccc(C#N)nc2)c1` [Compound 117, (S)-6-cyano-N-(3-(1-((1-methyl-1H-pyrazolo[3,4-b]pyrazin-6-yl)amino)ethyl)phenyl) nicotinamide], the concentration for half-maximal inhibition (IC50) was below 300 nM in assay [1] and at least 1000 nM in assay [2].

`C[C@H](Nc1cnc2cnn(C)c2n1)c1cccc(NC(=O)c2ccc(OC(F)F)nc2)c1` [Compound 118, (S)-6-(difluoromethoxy)-N-(3-(1-((1-methyl-1H-pyrazolo[3,4-6]pyrazin-6-yl)amino)ethyl)phenyl)nicotinamide]: the half-maximal inhibitory concentration (IC50) in assay [1] and in assay [2] was below 300 nM in each case.

In the case of `C[C@H](Nc1cnc2cnn(C)c2n1)c1cccc(NC(=O)c2ccc(OC(F)(F)F)nc2)c1` [Compound 119, (S)-N-(3-(1-((1-methyl-1H-pyrazolo[3,4-b]pyrazin-6-yl)amino)ethyl)phenyl)-6-(trifluoromethoxy)nicotinamide], the IC50 in assay [1] and in assay [2] was below 300 nM throughout.

As for `CNc1ccc(C(=O)Nc2cccc([C@H](C)Nc3cnc4cnn(C)c4n3)c2)cn1` [Compound 120, (S)-N-(3-(1-((1-methyl-1H-pyrazolo[3,4-b]pyrazin-6-yl)amino)ethyl)phenyl)-6-(methylamino)nicotinamide], the half-maximal inhibitory concentration (IC50) in assay [1] is below 300 nM; in assay [2], 300 to 1000 nM.

For the compound `C[C@H](Nc1cnc2cnn(C)c2n1)c1cccc(NC(=O)c2ccc(NC3CC3)nc2)c1` [Compound 121, (S)-6-(cyclopropylamino)-N-(3-(1-((1-methyl-1H-pyrazolo[3,4-6]pyrazin-6-yl)amino)ethyl)phenyl)nicotinamide], the IC50 in assay [1] and in assay [2] was below 300 nM each time.

For `COc1ccc(C(=O)Nc2cccc([C@H](C)Nc3cnc4cnn(C)c4n3)c2)cn1` [Compound 122, (S)-6-methoxy-N-(3-(1-((1-methyl-1H-pyrazolo[3,4-b]pyrazin-6-yl)amino)ethyl)phenyl)nicotinamide], the IC50 in assay [1] was below 300 nM; in assay [2], 300 to 1000 nM.

As for `C[C@H](Nc1cnc2cnn(C)c2n1)c1cccc(NC(=O)c2ccc(C3CCC3)nc2)c1` [Compound 123, (S)-6-cyclobutyl-N-(3-(1-((1-methyl-1H-pyrazolo[3,4-b]pyrazin-6-yl)amino)ethyl)phenyl)nicotinamide], the IC50 in assay [1] and in assay [2] was below 300 nM throughout.

As to `Cc1ncc(C(=O)Nc2cccc([C@H](C)Nc3cnc4cnn(C)c4n3)c2)cc1C(F)(F)F` [Compound 124, (S)-6-methyl-N-(3-(1-((1-methyl-1H-pyrazolo[3,4-b]pyrazin-6-yl)amino)ethyl)phenyl)-5-(trifluoromethyl) nicotinamide], the half-inhibitory concentration (IC50) in assay [1] and in assay [2] was below 300 nM in each case.

With `Cc1cc(C(=O)Nc2cccc([C@H](C)Nc3cnc4cnn(C)c4n3)c2)cnc1C(F)(F)F` [Compound 125, (S)-5-methyl-N-(3-(1-((1-methyl-1H-pyrazolo[3,4-b]pyrazin-6-yl)amino)ethyl)phenyl)-6-(trifluoromethyl) nicotinamide], the IC50 in assay [1] and in assay [2] was below 300 nM throughout.

For the compound `Cc1ncc(C(F)(F)F)cc1C(=O)Nc1cccc([C@H](C)Nc2cnc3cnn(C)c3n2)c1` [Compound 126, (S)-2-methyl-N-(3-(1-((1-methyl-1H-pyrazolo[3,4-b]pyrazin-6-yl)amino)ethyl)phenyl)-5-(trifluoromethyl) nicotinamide], the 50% inhibitory concentration (IC50) in assay [1] is 300 to 1000 nM; in assay [2], at least 1000 nM.

In the case of `Cc1cc(C(=O)Nc2cccc([C@H](C)Nc3cnc4cnn(C)c4n3)c2)cnc1C#N` [Compound 127, (S)-6-cyano-5-methyl-N-(3-(1-((1-methyl-1H-pyrazolo[3,4-b]pyrazin-6-yl)amino)ethyl)phenyl)nicotinamide], the IC50 in assay [1] and in assay [2] was below 300 nM each time.

`COc1ncc(C(=O)Nc2cccc([C@H](C)Nc3cnc4cnn(C)c4n3)c2)cc1C` [Compound 128, (S)-6-methoxy-5-methyl-N-(3-(1-((1-methyl-1H-pyrazolo[3,4-b]pyrazin-6-yl)amino)ethyl)phenyl)nicotinamide]: the half-maximal inhibitory concentration (IC50) in assay [1] and in assay [2] was below 300 nM in each case.

With `CCOc1ncc(C(=O)Nc2cccc([C@H](C)Nc3cnc4cnn(C)c4n3)c2)cc1C` [Compound 129, (S)-6-ethoxy-5-methyl-N-(3-(1-((1-methyl-1H-pyrazolo[3,4-b]pyrazin-6-yl)amino)ethyl)phenyl)nicotinamide], the IC50 in assay [1] and in assay [2] was below 300 nM each time.

`CNc1ncc(C(=O)Nc2cccc([C@H](C)Nc3cnc4cnn(C)c4n3)c2)cc1C` [Compound 130, (S)-5-methyl-N-(3-(1-((1-methyl-1H-pyrazolo[3,4-b]pyrazin-6-yl)amino)ethyl)phenyl)-6-(methylamino) nicotinamide]: the IC50 in assay [1] and in assay [2] was below 300 nM throughout.

For the compound `C[C@H](Nc1cnc2cnn(C)c2n1)c1cccc(NC(=O)c2cnccc2F)c1` [Compound 131, (S)-4-fluoro-N-(3-(1-((1-methyl-1H-pyrazolo[3,4-b]pyrazin-6-yl)amino)ethyl)phenyl) nicotinamide], the figures for the IC50 in assay [1] and in assay [2] were 300 to 1000 nM and at least 1000 nM, respectively.

For `Cc1cc(C(=O)Nc2cccc([C@H](C)Nc3cnc4cnn(C)c4n3)c2)cnn1` [Compound 132, (S)-6-methyl-N-(3-(1-((1-methyl-1H-pyrazolo[3,4-b]pyrazin-6-yl)amino)ethyl)phenyl)pyridazine-4-carboxamide], the half-inhibitory concentration (IC50) in assay [1] is below 300 nM; in assay [2], at least 1000 nM.

For `Cc1ccc(C(=O)Nc2cccc([C@H](C)Nc3cnc4cnn(C)c4n3)c2)s1` [Compound 133, (S)-5-methyl-N-(3-(1-((1-methyl-1H-pyrazolo[3,4-b]pyrazin-6-yl)amino)ethyl)phenyl)thiophene-2-carboxamide], the IC50 in assay [1] and in assay [2] was below 300 nM throughout.

`C[C@H](Nc1cnc2cnn(C)c2n1)c1cccc(NC(=O)c2ccc(C(F)F)s2)c1` [Compound 134, (S)-5-(difluoromethyl)-N-(3-(1-((1-methyl-1H-pyrazolo[3,4-b]pyrazin-6-yl)amino)ethyl)phenyl)thiophene-2-carboxamide]: the half-maximal inhibitory concentration (IC50) in assay [1] and in assay [2] was below 300 nM each time.

For the compound `C[C@H](Nc1cnc2cnn(C)c2n1)c1cccc(NC(=O)c2ccc(Cl)s2)c1` [Compound 135, (S)-5-chloro-N-(3-(1-((1-methyl-1H-pyrazolo[3,4-b]pyrazin-6-yl)amino)ethyl)phenyl)thiophene-2-carboxamide], the IC50 in assay [1] and in assay [2] was below 300 nM throughout.

In the case of `C[C@H](Nc1cnc2cnn(C)c2n1)c1cccc(NC(=O)c2ccc(C3CC3)s2)c1` [Compound 136, (S)-5-cyclopropyl-N-(3-(1-((1-methyl-1H-pyrazolo[3,4-b]pyrazin-6-yl)amino)ethyl)phenyl)thiophene-2-carboxamide], the 50% inhibitory concentration (IC50) in assay [1] and in assay [2] was below 300 nM each time.

Take `C[C@H](Nc1cnc2cnn(C)c2n1)c1cccc(NC(=O)c2ccc(C(F)(F)F)s2)c1` [Compound 137, (S)-N-(3-(1-((1-methyl-1H-pyrazolo[3,4-b]pyrazin-6-yl)amino)ethyl)phenyl)-5-(trifluoromethyl)thiophene-2-carboxamide]: the concentration for half-maximal inhibition (IC50) in assay [1] and in assay [2] was below 300 nM throughout.

On to `Cc1ncc(C(=O)Nc2cccc([C@H](C)Nc3cnc4cnn(C)c4n3)c2)s1` [Compound 138, (S)-2-methyl-N-(3-(1-((1-methyl-1H-pyrazolo[3,4-b]pyrazin-6-yl)amino)ethyl)phenyl)thiazole-5-carboxamide], for which the 50% inhibitory concentration (IC50) in assay [1] and in assay [2] was below 300 nM each time.

As for `C[C@H](Nc1cnc2cnn(C)c2n1)c1cccc(NC(=O)c2cnc(C(F)(F)F)s2)c1` [Compound 139, (S)-N-(3-(1-((1-methyl-1H-pyrazolo[3,4-b]pyrazin-6-yl)amino)ethyl)phenyl)-2-(trifluoromethyl)thiazole-5-carboxamide], the IC50 in assay [1] and in assay [2] was below 300 nM each time.

`C[C@H](Nc1cnc2cnn(C)c2n1)c1cccc(NC(=O)c2cnc(C3CC3)s2)c1` [Compound 140, (S)-2-cyclopropyl-N-(3-(1-((1-methyl-1H-pyrazolo[3,4-b]pyrazin-6-yl)amino)ethyl)phenyl)thiazole-5-carboxamide]: the IC50 in assay [1] and in assay [2] was below 300 nM throughout.

For the origin of these results see patent US20230102554A1 (GB002, INC., priority 2019, published 2023).
